# Data from patent US20210261512A1, “NOVEL COMPOUNDS” (INFLAZOME LIMITED, priority 2018, published 2021).
# How the values were obtained:
# NLRP3 [1] = biological target: T1, NLRP3 (Homo sapiens, UniProt Q96P20); assay: Human whole blood IL1β release assay; assay type: cell-based; conditions: LPS 1 μg/ml, nigericin 10 μM, IL-1β AlphaLisa, 10 μM top dose (Example 2: top dose of 30 μM), read-out: HWB IC50
# In short: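 Healthy-donor heparinised human whole blood with 1 μg/ml LPS, compound (8-point half-log dilution, 10 μM top dose unless stated; 0.1% DMSO vehicle) for 3 h at 37 °C, then nigericin 10 μM final for 1 h. Supernatant IL-1β by AlphaLISA; IC50 from 4-parameter variable-slope fit.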
# NLRP3 [2] = biological target: T1, NLRP3; assay: THP-1 cells pyroptosis assay; assay type: cell-based; design: Seed THP-1 cells (25,000 cells/well) containing 1.0 μg/ml LPS; host or cells: THP-1; conditions: LPS 1.0 μg/ml, nigericin 5 μM, resazurin readout, 10 μM top dose (Example 2: top dose of 30 μM)
# In short: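 THP-1 cells (25,000/well) primed with 1 μg/ml LPS in serum-free RPMI, treated with compound (8-point dilution, 10 μM top unless stated; 0.1% DMSO) 3 h at 37°C, then nigericin 5 μM 1 h. Viability read by resazurin (100 μM, 1-2 h) fluorescence; IC50 from 4-parameter fit.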
# T1 sequence (Q96P20 whole entry): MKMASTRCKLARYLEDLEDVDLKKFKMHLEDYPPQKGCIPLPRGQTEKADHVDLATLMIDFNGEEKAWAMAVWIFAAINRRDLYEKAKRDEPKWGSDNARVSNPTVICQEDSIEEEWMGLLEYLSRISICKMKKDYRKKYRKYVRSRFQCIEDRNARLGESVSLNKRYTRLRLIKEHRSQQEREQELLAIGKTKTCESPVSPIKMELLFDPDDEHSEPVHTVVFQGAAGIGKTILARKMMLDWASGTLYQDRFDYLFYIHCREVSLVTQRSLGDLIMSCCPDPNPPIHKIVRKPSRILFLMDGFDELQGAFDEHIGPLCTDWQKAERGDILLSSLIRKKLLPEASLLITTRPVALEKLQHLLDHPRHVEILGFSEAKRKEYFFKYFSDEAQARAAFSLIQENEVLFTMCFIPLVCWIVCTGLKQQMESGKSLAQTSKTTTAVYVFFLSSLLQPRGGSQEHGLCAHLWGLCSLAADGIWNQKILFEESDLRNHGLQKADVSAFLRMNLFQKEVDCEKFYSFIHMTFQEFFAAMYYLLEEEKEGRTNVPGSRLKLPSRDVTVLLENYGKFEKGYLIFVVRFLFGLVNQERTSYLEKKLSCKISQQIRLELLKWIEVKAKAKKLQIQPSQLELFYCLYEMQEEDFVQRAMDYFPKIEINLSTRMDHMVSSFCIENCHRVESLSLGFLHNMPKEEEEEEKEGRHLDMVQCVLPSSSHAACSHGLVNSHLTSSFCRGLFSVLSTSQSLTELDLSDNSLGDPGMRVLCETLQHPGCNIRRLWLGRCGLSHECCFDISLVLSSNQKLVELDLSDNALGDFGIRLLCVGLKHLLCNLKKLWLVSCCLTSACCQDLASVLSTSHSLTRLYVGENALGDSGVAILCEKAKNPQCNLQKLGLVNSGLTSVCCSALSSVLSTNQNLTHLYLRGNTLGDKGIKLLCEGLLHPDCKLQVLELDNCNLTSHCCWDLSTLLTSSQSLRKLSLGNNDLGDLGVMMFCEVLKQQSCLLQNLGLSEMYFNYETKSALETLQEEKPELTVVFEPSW
SMILES,IC50 (NLRP3 [1]) [nM],IC50 (NLRP3 [2]) [nM]
"CN1CCC12CCN(S(=O)(=O)c1nnc(Nc3c(-c4ccnc(OC(F)F)c4)ccc4c3CCO4)[nH]1)CC2 [Example 202, N-(5-(2-(difluoromethoxy)pyridin-4-yl)-2,3-dihydrobenzofuran-4-yl)-5-((1-methyl-1,7-diazaspiro[3.5]nonan-7-yl)sulfonyl)-4H-1,2,4-triazol-3-amine]",≤ 1000,≤ 500
"COc1cc(-c2ccc3c(c2Nc2nnc(S(=O)(=O)N4CCC5(CCN5C)CC4)[nH]2)CCO3)ccn1 [Example 203, N-(5-(2-methoxypyridin-4-yl)-2,3-dihydrobenzofuran-4-yl)-5-((1-methyl-1,7-diazaspiro[3.5]nonan-7-yl)sulfonyl)-4H-1,2,4-triazol-3-amine]",≤ 5000,≤ 500
"COc1cc(-c2ccc3c(c2Nc2nnc(S(=O)(=O)N4CCC5(CCN5C)CC4)[nH]2)CCC3)ccn1 [Example 204, N-(5-(2-methoxypyridin-4-yl)-2,3-dihydro-1H-inden-4-yl)-5-((1-methyl-1,7-diazaspiro[3.5]nonan-7-yl)sulfonyl)-4H-1,2,4-triazol-3-amine]",≤ 1000,≤ 500
"CN1CCCC12CCN(S(=O)(=O)c1nnc(Nc3c(-c4ccnc(OC(F)F)c4)ccc4c3CCO4)[nH]1)CC2 [Example 210, N-(5-(2-(difluoromethoxy)pyridin-4-yl)-2,3-dihydrobenzofuran-4-yl)-5-((1-methyl-1,8-diazaspiro[4.5]decan-8-yl)sulfonyl)-4H-1,2,4-triazol-3-amine]",≤ 5000,≤ 500
"COc1cc(-c2ccc3c(c2Nc2nnc(S(=O)(=O)N4CCC5(CCCN5C)CC4)[nH]2)CCO3)ccn1 [Example 211, N-(5-(2-methoxypyridin-4-yl)-2,3-dihydrobenzofuran-4-yl)-5-((1-methyl-1,8-diazaspiro[4.5]decan-8-yl)sulfonyl)-4H-1,2,4-triazol-3-amine]",≤ 5000,≤ 500
"Cc1cc(-c2ccc3c(c2Nc2nnc(S(=O)(=O)N4CCC(N(C)C)CC4)[nH]2)CCO3)ccn1 [Example 217, N,N-dimethyl-1-((5-((5-(2-methylpyridin-4-yl)-2,3-dihydrobenzofuran-4-yl)amino)-4H-1,2,4-triazol-3-yl)sulfonyl)piperidin-4-amine]",≤ 10000,≤ 5000
"[2H]C([2H])([2H])Oc1cc(-c2ccc3c(c2Nc2nnc(S(=O)(=O)N4CCC(N(C)C)CC4)[nH]2)CCO3)ccn1 [Example 218, 1-((5-((5-(2-(methoxy-d)pyridin-4-yl)-2,3-dihydrobenzofuran-4-yl)amino)-4H-1,2,4-triazol-3-yl)sulfonyl)-N,N-dimethylpiperidin-4-amine]",≤ 500,≤ 500
"CN(C)C1CCN(S(=O)(=O)c2nnc(Nc3c(-c4ccncc4)ccc4c3CCC4)[nH]2)CC1 [Example 219, N,N-dimethyl-1-((5-((5-(pyridin-4-yl)-2,3-dihydro-1H-inden-4-yl)amino)-4H-1,2,4-triazol-3-yl)sulfonyl)piperidin-4-amine]",≤ 1000,≤ 500
"CN(C)C1CCN(S(=O)(=O)c2nnc(Nc3c(-c4ccncc4)ccc4c3CCO4)[nH]2)CC1 [Example 220, N,N-dimethyl-1-((5-((5-(pyridin-4-yl)-2,3-dihydrobenzofuran-4-yl)amino)-4H-1,2,4-triazol-3-yl)sulfonyl)piperidin-4-amine]",≤ 5000,≤ 1000
"Cc1cc(-c2ccc3c(c2Nc2nnc(S(=O)(=O)N4CCC(N(C)C)CC4)[nH]2)CCC3)ccn1 [Example 221, N,N-dimethyl-1-((5-((5-(2-methylpyridin-4-yl)-2,3-dihydro-1H-inden-4-yl)amino)-4H-1,2,4-triazol-3-yl)sulfonyl)piperidin-4-amine]",≤ 5000,≤ 500
"CN(C)C1CCN(S(=O)(=O)c2nnc(Nc3c(-c4ccnc(OC(F)F)c4)ccc4c3CCC4)[nH]2)CC1 [Example 222, 1-((5-((5-(2-(difluoromethoxy)pyridin-4-yl)-2,3-dihydro-1H-inden-4-yl)amino)-4H-1,2,4-triazol-3-yl)sulfonyl)-N,N-dimethylpiperidin-4-amine]",≤ 1000,≤ 500
"CN(C)C1CCN(S(=O)(=O)c2nnc(Nc3c4c(c(F)c5c3CCC5)CCC4)[nH]2)CC1 [Example 224, 1-((5-((8-fluoro-1,2,3,5,6,7-hexahydro-s-indacen-4-yl)amino)-4H-1,2,4-triazol-3-yl)sulfonyl)-N,N-dimethylpiperidin-4-amine]",≤ 1000,≤ 500
"CN(C)C1CCN(S(=O)(=O)c2nnc(Nc3c(-c4ccnc(OC(F)F)c4)ccc4c3CCO4)[nH]2)CC1 [Example 225, 1-((5-((5-(2-(difluoromethoxy)pyridin-4-yl)-2,3-dihydrobenzofuran-4-yl)amino)-4H-1,2,4-triazol-3-yl)sulfonyl)-N,N-dimethylpiperidin-4-amine]",≤ 1000,≤ 500
"[2H]C([2H])([2H])Oc1cc(-c2ccc3c(c2Nc2nnc(S(=O)(=O)N4CCC(N(C)C)CC4)[nH]2)CCC3)ccn1 [Example 227, 1-((5-((5-(2-(methoxy-d3)pyridin-4-yl)-2,3-dihydro-1H-inden-yl)amino)-4H-1,2,4-triazol-3-yl)sulfonyl)-N,N-dimethylpiperidin-4-amine]",≤ 500,≤ 500
"COc1cc(-c2ccc3c(c2Nc2nnc(S(=O)(=O)N4CCC(N(C)C)CC4)[nH]2)CCC3)ccn1 [Example 228, 1-((5-((5-(2-methoxypyridin-4-yl)-2,3-dihydro-1H-inden-4-yl)amino)-4H-1,2,4-triazol-3-yl)sulfonyl)-N,N-dimethylpiperidin-4-amine]",≤ 1000,≤ 500
"CC(C)(O)[C@H]1CCN(S(=O)(=O)c2nnc(Nc3c4c(cc5c3CCC5)CCC4)[nH]2)C1 [Example 233, (S)-2-(1-((5-((1,2,3,5,6,7-hexahydro-s-indacen-4-yl)amino)-4H-1,2,4-triazol-3-yl)sulfonyl)pyrrolidin-3-yl)propan-2-ol]",≤ 5000,≤ 500
"O=S(=O)(c1nnc(Nc2c3c(cc4c2CCC4)CCC3)[nH]1)N1CC2(CCN(CCF)C2)C1 [Example 239, 5-((6-(2-fluoroethyl)-2,6-diazaspiro[3.4]octan-2-yl)sulfonyl)-N-(1,2,3,5,6,7-hexahydro-s-indacen-4-yl)-4H-1,2,4-triazol-3-amine]",≤ 5000,≤ 1000
"CCN1CCC2(C1)CN(S(=O)(=O)c1nnc(Nc3c4c(cc5c3CCC5)CCC4)[nH]1)C2 [Example 240, 5-((6-ethyl-2,6-diazaspiro[3.4]octan-2-yl)sulfonyl)-N-(1,2,3,5,6,7-hexahydro-s-indacen-4-yl)-4H-1,2,4-triazol-3-amine]",≤ 500,≤ 500
"CC(C)c1cc(F)cc(C(C)C)c1Nc1nc(S(=O)(=O)N2CCC(CN(C)C)C2)n[nH]1 (centres unmarked) [Example 241, 3-((3-((dimethylamino)methyl)pyrrolidin-1-yl)sulfonyl)-N-(4-fluoro-2,6-diisopropylphenyl)-1H-1,2,4-triazol-5-amine]",≤ 1000,≤ 500
"CC(C)c1cc(F)cc(C(C)C)c1Nc1nnc(S(=O)(=O)N2CC3(CCN(C)C3)C2)[nH]1 [Example 242, N-(4-fluoro-2,6-diisopropylphenyl)-5-((6-methyl-2,6-diazaspiro[3.4]octan-2-yl)sulfonyl)-4H-1,2,4-triazol-3-amine]",≤ 500,≤ 500
"O=S(=O)(c1nnc(Nc2c3c(cc4c2CCC4)CCC3)[nH]1)N1CCC2(CCCN2C2CC2)CC1 [Example 246, 5-((1-cyclopropyl-1,8-diazaspiro[4.5]decan-8-yl)sulfonyl)-N-(1,2,3,5,6,7-hexahydro-s-indacen-4-yl)-4H-1,2,4-triazol-3-amine]",≤ 5000,≤ 1000
"COc1cc(-c2cc(F)cc(C(C)C)c2Nc2nnc(S(=O)(=O)N3CC4(CCN(C)C4)C3)[nH]2)ccn1 [Example 248, N-(4-fluoro-2-isopropyl-6-(2-methoxypyridin-4-yl)phenyl)-5-((6-methyl-2,6-diazaspiro[3.4]octan-2-yl)sulfonyl)-4H-1,2,4-triazol-3-amine]",≤ 1000,≤ 500
"COc1cc(-c2cc(F)cc(C(C)C)c2Nc2nnc(S(=O)(=O)N3CCC4(CCN4C)CC3)[nH]2)ccn1 [Example 249, N-(4-fluoro-2-isopropyl-6-(2-methoxypyridin-4-yl)phenyl)-5-((1-methyl-1,7-diazaspiro[3.5]nonan-7-yl)sulfonyl)-4H-1,2,4-triazol-3-amine]",≤ 5000,≤ 500
"COc1cc(-c2cc(F)cc(C(C)C)c2Oc2nnc(S(=O)(=O)N3CCC4(CCCN4C)CC3)[nH]2)ccn1 [Example 251, 8-((5-(4-fluoro-2-isopropyl-6-(2-methoxypyridin-4-yl)phenoxy)-4H-1,2,4-triazol-3-yl)sulfonyl)-1-methyl-1,8-diazaspiro[4.5]decane]",≤ 5000,≤ 500
"O=S(=O)(c1nnc(Nc2c3c(cc4c2CCC4)CCC3)[nH]1)N1CCC2(CCN2C2CC2)CC1 [Example 254, 5-((1-cyclopropyl-1,7-diazaspiro[3.5]nonan-7-yl)sulfonyl)-N-(1,2,3,5,6,7-hexahydro-s-indacen-4-yl)-4H-1,2,4-triazol-3-amine]",≤ 5000,≤ 500
